Reference: patent US10519197B1, “Peptide-based proteasome inhibitors for treating conditions mediated by senescent cells and for treating cancer” (UNITY BIOTECHNOLOGY, INC., priority 2017, dated 2019)

How the values were obtained:
Type in all cases: in vivo, mouse
[1] = tested on: 3MR and INK-ATTAC mice exposed to cigarette smoke; assay: Cigarette smoke COPD model, oxygen saturation by pulse oximeter; settings: after two months of cigarette smoke exposure, compared with untreated controls
Method: As a model for chronic obstructive pulmonary disease (COPD), mice were exposed to cigarette smoke. The effect of a senolytic agent on the mice exposed to smoke is assessed by senescent cell clearance, lung function, and histopathology.
The mice used in this study include the 3MR strain, described in US 2017/0027139 A1 and in Demaria et al., Dev Cell. 2014 December 22; 31(6): 722-733. The 3MR mouse has a transgene encoding thymidine kinase that converts the prodrug ganciclovir (GCV) to a compound that is lethal to cells. The enzyme in the transgene is placed under control of the p16 promoter, which causes it to be specifically expressed in senescent cells. Treatment of the mice with GCV eliminates senescent cells.
Other mice used in this study include the INK-ATTAC strain, described in US 2015/0296755 A1 and in Baker et al., Nature 2011 Nov. 2; 479(7372):232-236. The INK-ATTAC mouse has a transgene encoding switchable caspase 8 under control of the p16 promoter. The caspase 8 can be activated by treating the mice with the switch compound AP20187, whereupon the caspase 8 directly induces apoptosis in senescent cells, eliminating them from the mouse.
To conduct the experiment, six-week-old 3MR (n=35) or INK-ATTAC (n=35) mice were chronically exposed to cigarette smoke generated from a Teague TE-10 system, an automatically-controlled cigarette smoking machine that produces a combination of side-stream and mainstream cigarette smoke in a chamber, which is transported to a collecting and mixing chamber where varying amounts of air is mixed with the smoke mixture. The COPD protocol was adapted from the COPD core facility at Johns Hopkins University (Rangasamy et al., 2004, J. Clin. Invest. 114:1248-1259; Yao et al., 2012, J. Clin. Invest. 122:2032-2045).
Mice received a total of 6 hours of cigarette smoke exposure per day, 5 days a week for 6 months. Each lighted cigarette (3R4F research cigarettes containing 10.9 mg of total particulate matter (TPM), 9.4 mg of tar, and 0.726 mg of nicotine, and 11.9 mg carbon monoxide per cigarette [University of Kentucky, Lexington, Ky.]) was puffed for 2 seconds and once every minute for a total of 8 puffs, with the flow rate of 1.05 L/min, to provide a standard puff of 35 cm^3. […] The smoke chamber atmosphere was monitored for total suspended particulates (80-120 mg/m3) and carbon monoxide (350 ppm). […]
After two months of cigarette smoke (CS) exposure, lung function was assessed by monitoring oxygen saturation using the MouseSTAT PhysioSuite™ pulse oximeter (Kent Scientific). […] Mice were monitored for 30 seconds and the average peripheral capillary oxygen saturation (SpO2) measurement over this duration was calculated.

[2] = tested on: p16, IL-6, and MMP13; assay: Osteoarthritis model (ACL surgery): qRT-PCR of senescence and SASP markers in operated joints; settings: 5.8 μg per operated knee, intra-articular, q.o.d. for 2 weeks; 4 weeks post-surgery; mRNA by qRT-PCR
Method: (§1) The model was implemented as follows. C57BL/6J mice underwent surgery to cut the anterior cruciate ligament of one rear limb to induce osteoarthritis in the joint of that limb. During week 3 and week 4 post-surgery, the mice were treated with 5.8 μg of Nutlin-3A (n=7) per operated knee by intra-articular injection, q.o.d. for 2 weeks. At the end of 4 weeks post-surgery, joints of the mice were monitored for presence of senescent cells, assessed for function, monitored for markers of inflammation, and underwent histological assessment.
Two control groups of mice were included in the studies performed: one group comprising C57BL/6J or 3MR mice that had undergone a sham surgery (n=3) (i.e., surgical procedures followed except for cutting the ACL) and intra-articular injections of vehicle parallel to the GCV (ganciclovir) treated group; and one group comprising C57BL/6J or 3MR mice that had undergone an ACL surgery and received intra-articular injections of vehicle (n=5) parallel to the GCV-treated group. RNA from the operated joints of mice from the Nutlin-3A treated mice was analyzed for expression of SASP factors (mmp3, IL-6) and senescence markers (p16). qRT-PCR was performed to detect mRNA levels.

[3] = tested on: C57BL/6J mice with surgery-induced osteoarthritis; assay: Osteoarthritis model (ACL surgery): weight bearing test; settings: 5.8 μg per operated knee, intra-articular; 4 weeks post-surgery
Method: as §1
Function of the limbs was assessed 4 weeks post-surgery by a weight bearing test to determine which leg the mice favored. The mice were allowed to acclimate to the chamber on at least three occasions prior to taking measurements. Mice were maneuvered inside the chamber to stand with one hind paw on each scale. The weight that was placed on each hind limb was measured over a three second period. At least three separate measurements were made for each animal at each time point. The results were expressed as the percentage of the weight placed on the operated limb versus the contralateral unoperated limb.

[4] = tested on: C57BL/6J mice with surgery-induced osteoarthritis; assay: Osteoarthritis model (ACL surgery): histopathology of joint tissue; settings: 5.8 μg per operated knee, intra-articular; 4 weeks post-surgery
Method: as §1

[5] = tested on: MMP3, MMP13, PAI1, p21, IGFBP2, IL-1A, and IL-1B; assay: Atherosclerosis model (LDLR-/- mice, high fat diet): RT-PCR of SASP factors and senescent cell markers in aortic arches; settings: 25 mg/kg intraperitoneally, HFD
Method: Two groups of LDLR−/− mice (10 weeks) are fed a high fat diet (HFD) (Harlan Teklad TD.88137) having 42% calories from fat, beginning at Week 0 and throughout the study. Two groups of LDLR−/− mice (10 weeks) are fed normal chow (−HFD). From weeks 0-2, one group of HFD mice and −HFD mice are treated with Nutlin-3A (25 mg/kg, intraperitoneally). One treatment cycle is 14 days treatment, 14 days off. Vehicle is administered to one group of HFD mice and one group of −HFD mice. At week 4 (timepoint 1), one group of mice are sacrificed and to assess presence of senescent cells in the plaques. For the some of the remaining mice, Nutlin-3A and vehicle administration is repeated from weeks 4-6. […]
At the end of timepoint 1, LDLR−/− mice fed a HFD and treated with Nutlin-3A or vehicle were sacrificed (n=3, all groups), and the aortic arches were dissected for RT-PCR analysis of SASP factors and senescent cell markers. Values were normalized to GAPDH and expressed as fold-change versus age-matched, vehicle-treated LDLR−/− mice on a normal diet.
At the end of timepoint 2, LDLR−/− mice fed a HFD and treated with Nutlin-3A or vehicle (n=3 for all groups) were sacrificed, and aortic arches were dissected for RT-PCR analysis of SASP factors and senescent cell markers. Values were normalized to GAPDH and expressed as fold-change versus age-matched, vehicle-treated LDLR−/− mice on a normal diet.

[6] = tested on: LDLR-/- mice fed a HFD; assay: Atherosclerosis model (LDLR-/- mice, high fat diet): Sudan IV staining of aortic plaques; settings: 25 mg/kg intraperitoneally, timepoint 3 (week 12)
Method: (§2) Two groups of LDLR−/− mice (10 weeks) are fed a high fat diet (HFD) (Harlan Teklad TD.88137) having 42% calories from fat, beginning at Week 0 and throughout the study. Two groups of LDLR−/− mice (10 weeks) are fed normal chow (−HFD). From weeks 0-2, one group of HFD mice and −HFD mice are treated with Nutlin-3A (25 mg/kg, intraperitoneally). One treatment cycle is 14 days treatment, 14 days off. Vehicle is administered to one group of HFD mice and one group of −HFD mice. At week 4 (timepoint 1), one group of mice are sacrificed and to assess presence of senescent cells in the plaques. For the some of the remaining mice, Nutlin-3A and vehicle administration is repeated from weeks 4-6. At week 8 (timepoint 2), the mice are sacrificed and to assess presence of senescent cells in the plaques. The remaining mice are treated with Nutlin-3A or vehicle from weeks 8-10. At week 12 (timepoint 3), the mice are sacrificed and to assess the level of plaque and the number of senescent cells in the plaques.
(§3) At the end of timepoint 3, LDLR−/− mice fed a HFD and treated with Nutlin-3A or vehicle (n=3 for all groups) were sacrificed, and aortas were dissected and stained with Sudan IV to detect the presence of lipid. Body composition of the mice was analyzed by MRI, and circulating blood cells were counted by Hemavet™.

[7] = Atherosclerosis model: circulating blood cell counts by Hemavet; settings: 25 mg/kg intraperitoneally, timepoint 3 (week 12)
Method: as §2, §3

[8] = Atherosclerosis model: body composition by MRI; settings: 25 mg/kg intraperitoneally, timepoint 3 (week 12), mice fed the high fat diet
Method: as §2, §3

Nc1nc(O)c2ncn(COC(CO)CO)c2n1 [ganciclovir]
SpO2 levels [1]: statistically significant increases

CC[C@H](C(=O)N1CCCC[C@H]1C(=O)O[C@H](CCc1ccc(OC)c(OC)c1)c1cccc(OCC(=O)NCC(CNC(=O)COc2cccc([C@@H](CCc3ccc(OC)c(OC)c3)OC(=O)[C@@H]3CCCCN3C(=O)[C@@H](CC)c3cc(OC)c(OC)c(OC)c3)c2)CN(C)C)c1)c1cc(OC)c(OC)c(OC)c1 [AP2018]
SpO2 levels [1]: statistically significant increases

COc1ccc(C2=N[C@@H](c3ccc(Cl)cc3)[C@@H](c3ccc(Cl)cc3)N2C(=O)N2CCNC(=O)C2)c(OC(C)C)c1 [Nutlin-3A]
expression of p16, IL-6, and MMP13 in the tissue [2]: reduced the expression back to below the level of the controls
weight bearing: favoring of the unoperated hind limb over the operated hind limb [3]: abrogated this effect
destruction of the proteoglycan layer (histopathology of joint tissue) [4]: completely abrogated this effect
SpO2 levels [1]: statistically significant increases
expression of SASP factors and senescent cell markers MMP3, MMP13, PAI1, p21, IGFBP2, IL-1A, and IL-1B in aortic arch ([5]; after one treatment cycle (timepoint 1, week 4)): reduced expression
expression of SASP factors and senescent cell markers in aortic arch ([5]; multiple treatment cycles (timepoint 2, week 8)): reduced expression of most markers
reduction of the surface area covered by plaques in the descending aorta [6]: about 45%
platelet and lymphocyte counts versus vehicle treated mice [7]: equivalent
mass and body fat composition [8]: decreased

CC1(C)CCC(c2ccc(Cl)cc2)=C(CN2CCN(c3ccc(C(=O)NS(=O)(=O)c4ccc(N[C@H](CCN5CCOCC5)CSc5ccccc5)c(S(=O)(=O)C(F)(F)F)c4)cc3)CC2)C1 [ABT-263]
SpO2 levels [1]: statistically significant increases
